Converted amounts (≈) assume the structure as drawn.
Columns and labels:
[1] = Qualitative solubility of RK-33 in various solubilizers; format: physicochemical; conditions: for solubility: thermodynamic from solid
Experimental: The degree of solubility of RK-33 in various solubilizers were tested. RK-33 was added to the solubilizer and observed for formation of homogenous molecular dispersion and physical appearance.

[2] = Formulation appearance (color, visual precipitation, clarity); format: physicochemical; conditions: with 50% PEG 200 and 4% HPβCD
Experimental: RK-33 formulations comprising of various combinations of solvents and polymers were prepared and analyzed for color, visual precipitation and clarity.
Formulations comprising of various combinations of solvents and polymers were prepared with an intralipid emulsion used to provide calories to patients who receive an injection into the vein. The prepared formulations were then analyzed for color, visual precipitation and clarity.
Formulations comprising of various combinations of solvents and polymers, including Captisol®, were prepared. The formulations were analyzed for color, visual precipitation and clarity.

tumor cells = conditions: sarcoma, breast, prostate, colorectal, lung, medulloblastoma; cited from earlier work
DDX3 = DDX3 (Homo sapiens, UniProt O00571); conditions: Oncogene 27(28): 3912-3922 (2008); cited from earlier work
Sequence of DDX3 (O00571 whole entry): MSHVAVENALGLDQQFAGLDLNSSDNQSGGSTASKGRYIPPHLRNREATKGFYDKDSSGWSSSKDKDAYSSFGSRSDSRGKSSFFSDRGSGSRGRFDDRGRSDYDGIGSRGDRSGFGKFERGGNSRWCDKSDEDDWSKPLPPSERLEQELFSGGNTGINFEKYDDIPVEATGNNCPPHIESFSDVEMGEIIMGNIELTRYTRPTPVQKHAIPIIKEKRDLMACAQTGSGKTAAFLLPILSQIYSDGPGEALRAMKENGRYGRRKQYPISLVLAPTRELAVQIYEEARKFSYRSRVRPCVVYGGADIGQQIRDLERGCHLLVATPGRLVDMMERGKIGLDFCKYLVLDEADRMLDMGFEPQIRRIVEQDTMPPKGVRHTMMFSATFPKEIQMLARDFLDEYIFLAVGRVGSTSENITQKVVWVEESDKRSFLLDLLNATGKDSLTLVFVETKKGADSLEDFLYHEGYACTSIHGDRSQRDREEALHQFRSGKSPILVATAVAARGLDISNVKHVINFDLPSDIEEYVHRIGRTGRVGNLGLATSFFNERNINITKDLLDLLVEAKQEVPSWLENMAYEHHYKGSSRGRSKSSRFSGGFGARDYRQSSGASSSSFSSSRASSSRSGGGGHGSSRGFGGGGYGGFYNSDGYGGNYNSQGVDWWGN

solubility ([1]; aqueous buffer, solvent Water (pH 4)): < 1000 µg/mL
solubility ([1]; aqueous buffer, solvent Water (pH 8)): < 1000 µg/mL
solubility ([1]; aqueous buffer, solvent Water (pH 10)): < 1000 µg/mL
solubility ([1]; oil or lipid, solvent Corn oil): < 1000 µg/mL
solubility ([1]; oil or lipid, solvent Gelucire 44/14): < 1000 µg/mL
solubility ([1]; oil or lipid, solvent Labrafil 1944CS): < 1000 µg/mL
solubility ([1]; oil or lipid, solvent Miglyol 810): < 1000 µg/mL
solubility ([1]; oil or lipid, solvent Oleic acid): < 1000 µg/mL
solubility ([1]; oil or lipid, solvent Olive oil): < 1000 µg/mL
solubility ([1]; organic solvent or mixture, solvent Benzyl alcohol): > 250000 µg/mL
solubility ([1]; organic solvent or mixture, solvent DMA): > 100000 µg/mL
solubility ([1]; organic solvent or mixture, solvent DMSO): > 100000 µg/mL
solubility ([1]; organic solvent or mixture, solvent Ethanol): < 1000 µg/mL
solubility ([1]; organic solvent or mixture, solvent Glycerin): < 1000 µg/mL
solubility ([1]; organic solvent or mixture, solvent Glycerol formal): > 75000 µg/mL
solubility ([1]; organic solvent or mixture, solvent NMP): > 100000 µg/mL
solubility ([1]; organic solvent or mixture, solvent PEG 200): ~12000 µg/mL (≈ 28000 µM)
solubility ([1]; organic solvent or mixture, solvent PEG300): ~10000 µg/mL (≈ 23300 µM)
solubility ([1]; organic solvent or mixture, solvent PEG 400): 5000 to 10000 µg/mL (≈ 11700 to 23300 µM)
solubility ([1]; organic solvent or mixture, solvent PG): 1000 to 5000 µg/mL (≈ 2330 to 11700 µM)
solubility ([1]; simulated gastric fluid, solvent Water (pH 1.6)): < 1000 µg/mL
Observation ([1]; solvent Benzyl alcohol): Clear, yellow colored solution
Observation ([1]; solvent Corn oil): Dispersion
Observation ([1]; solvent DMA): Clear, yellow colored solution
Observation ([1]; solvent DMSO): Clear, yellow colored solution
Observation ([1]; solvent Ethanol): Yellow dispersion
Observation ([1]; solvent Gelucire 44/14): Dispersion
Observation ([1]; solvent Glycerin): Dispersion
Observation ([1]; solvent Glycerol formal): Clear, yellow colored solution
Observation ([1]; solvent Labrafil 1944CS): Dispersion
Observation ([1]; solvent Miglyol 810): Dispersion
Observation ([1]; solvent NMP): Clear, yellow colored solution
Observation ([1]; solvent Oleic acid): Dispersion
Observation ([1]; solvent Olive oil): Dispersion
Observation ([1]; solvent PEG 200): Clear, yellow colored solution
Observation ([1]; solvent PEG300): Clear, yellow colored solution
Observation ([1]; solvent PEG 400): Clear, yellow colored solution
Observation ([1]; solvent PG): Clear, yellow colored solution
Observation ([1]; solvent Water): Poor wettability
Observation ([1]; solvent Water (pH 1.6)): Poor wettability
Observation ([1]; solvent Water (pH 4)): Poor wettability
Observation ([1]; solvent Water (pH 8)): Poor wettability
Observation ([1]; solvent Water (pH 10)): Poor wettability
solubility ([1]; solvent Water): < 1000 µg/mL
RK-33 formulation concentration achieved [2]: 2.5 mg/mL
SMILES: COc1ccc(Cn2c3ncnc4c(ncn4Cc4ccc(OC)cc4)c-3nc2=O)cc1 [RK-33]
Inhibiting the growth of tumor cells (tumor cells): effective results in inhibiting the growth of tumor cells
Effect of targeting DDX3 on cells (DDX3): promotes cell death

— patent US12569499B2, “Intravenous formulations of RK-33” (NATSAR PHARMACEUTICALS, INC., priority 2021, dated 2026)
